Assay results from ChEMBL document CHEMBL5518196, “Discovery of potent thiazolidin-4-one sulfone derivatives for inhibition of proliferation of osteosarcoma in vitro and in vivo” (Eur J Med Chem, 2024).

Test system: HOS-TE85
Test: Antiproliferative activity against human MNNG/HOS cells assessed as inhibition of cell growth incubated for 72 hrs by CCK8 assay
Assay type: functional, cell-based
Settings: HOS-TE85, 72 h

Compound | IC50 [nM]
COCCCCNC(=O)c1cccc([C@@H]2N(c3ccc(F)cn3)C(=O)CS2(=O)=O)n1 | 272
COC(=O)c1cccc(C2N(c3ccccc3)C(=O)CS2(=O)=O)c1 (stereo not drawn) | > 10000
Cc1cccc(N2C(=O)C[S+]([O-])C2c2cccc(C(=O)NCCCCc3ccccc3)c2)c1 (stereo not drawn) | 177
O=C(CCCNC(=O)c1cccc(C2N(c3ccccn3)C(=O)CS2(=O)=O)n1)Nc1ccccc1 (stereo not drawn) | > 1000
O=C(NCCCCc1ccccc1)c1cccc(C2N(c3ccccn3)C(=O)CS2(=O)=O)n1 (stereo not drawn) | 109
O=C(CCCNC(=O)c1cccc(C2N(c3ccccn3)C(=O)CS2(=O)=O)n1)c1ccccc1 (stereo not drawn) | 203
O=C(NCCCCc1ccccc1)c1cccc(C2N(c3ccccc3)C(=O)C[S+]2[O-])c1 (stereo not drawn) | 3110
O=C(O)c1cc(C(=O)NCCCCc2ccccc2)cc(C2N(c3ccccc3)C(=O)CS2(=O)=O)c1 (stereo not drawn) | > 10000
COc1cccnc1N1C(=O)CS(=O)(=O)C1c1cccc(C(=O)NCCCCc2ccccc2)c1 (stereo not drawn) | 16
O=C(NCCCCn1cccn1)c1cccc(C2N(c3ccccn3)C(=O)CS2(=O)=O)n1 (stereo not drawn) | 979
COc1ccccc1N1C(=O)CS(=O)(=O)C1c1cccc(C(=O)NCCCCc2ccccc2)n1 (stereo not drawn) | 4
O=C(NCCCCc1ccccc1)c1cccc(C2N(c3cccc(Cl)c3)C(=O)CS2(=O)=O)n1 (stereo not drawn) | 430
O=C(NCCCCc1ccccc1)c1cccc(C2N(c3ccccc3)C(=O)CS2(=O)=O)n1 (stereo not drawn) | > 10000
CC(C)(C)OCCCCNC(=O)c1cccc(C2N(c3ccccn3)C(=O)CS2(=O)=O)n1 (stereo not drawn) | > 1000
O=C(NCCCCc1ccccc1)c1cccc(C2N(c3ccc4ccccc4c3)C(=O)CS2(=O)=O)c1 (stereo not drawn) | 474
O=C(NCCCCc1ccccc1)c1cccc(C2N(c3cccc4cccnc34)C(=O)CS2(=O)=O)c1 (stereo not drawn) | 25
Cc1cccc(N2C(=O)CS(=O)(=O)C2c2cccc(C(=O)NCCCCc3ccccc3)c2)c1 (stereo not drawn) | 230
COC(=O)c1cc(C(=O)NCCCCc2ccccc2)cc(C2N(c3ccccc3)C(=O)CS2(=O)=O)c1 (stereo not drawn) | 60
Cc1ccnc(N2C(=O)C[S+]([O-])C2c2cccc(C(=O)NCCCCc3ccccc3)c2)c1 (stereo not drawn) | 74
COCCCCNC(=O)c1cccc([C@@H]2N(c3ncccc3OC)C(=O)CS2(=O)=O)n1 | 113
O=C(NCCCCc1ccccc1)c1cccc(C2N(CCc3ccccc3)C(=O)C[S+]2[O-])c1 (stereo not drawn) | > 10000
O=C(NCCCCc1ccccc1)c1cccc(C2N(c3ccc4c(c3)OCO4)C(=O)CS2(=O)=O)c1 (stereo not drawn) | 73

Compound | IC50 [nM]
Cc1ccnc(N2C(=O)CS(=O)(=O)C2c2cccc(C(=O)NCCCCc3ccccc3)n2)c1 (stereo not drawn) | 33
COC(=O)CCCNC(=O)c1cccc(C2N(c3ccccn3)C(=O)CS2(=O)=O)n1 (stereo not drawn) | 142
CCCCNC(=O)c1cccc(C2N(c3ccccc3)C(=O)CS2(=O)=O)c1 (stereo not drawn) | > 10000
Cc1ccnc(N2C(=O)CS[C@H]2c2cccc(C(=O)NCCCCn3cccn3)c2)c1 | > 10000
O=C(NCCCCc1ccccc1)c1cccc(C2N(c3ccccn3)C(=O)CS2(=O)=O)c1 (stereo not drawn) | 25
Cc1cccc(N2C(=O)CS(=O)(=O)C2c2cccc(C(=O)NCCCCc3ccccc3)n2)n1 (stereo not drawn) | 775
O=C(NCCOCc1ccccc1)c1cccc(C2N(c3ccccn3)C(=O)CS2(=O)=O)n1 (stereo not drawn) | > 1000
O=C(NCCCCc1ccccc1)c1cccc(C2N(c3ncccc3F)C(=O)CS2(=O)=O)n1 (stereo not drawn) | 25
COCCCCNC(=O)c1cccc([C@H]2N(c3ncccc3OC)C(=O)CS2(=O)=O)n1 | 71
O=C(NCCCCc1ccccc1)c1cccc(C2N(CCc3ccccc3)C(=O)CS2(=O)=O)c1 (stereo not drawn) | > 10000
COC(=O)c1cccc(C2SCC(=O)N2c2ccccn2)n1 (stereo not drawn) | > 1000
O=C(NCCCCc1ccccc1)c1cccc(C2N(Cc3ccccc3)C(=O)C[S+]2[O-])c1 (stereo not drawn) | > 10000
O=C(NCCCCc1ccccc1)c1cccc(C2N(Cc3ccccc3)C(=O)CS2(=O)=O)c1 (stereo not drawn) | > 10000
Cc1ccnc(N2C(=O)CS(=O)(=O)C2c2cccc(C(=O)NCCCCc3ccccc3)c2)c1 (stereo not drawn) | 71
O=C(NCCCCc1ccccc1)c1cccc(C2N(c3ccc(-c4ccccc4)cc3)C(=O)CS2(=O)=O)c1 (stereo not drawn) | > 10000
COc1cccc(N2C(=O)CS(=O)(=O)C2N(CCCCc2ccccc2)C(=O)c2ccccc2)c1 (stereo not drawn) | 68
O=C(NCCCCc1ccccc1)c1cccc(C2N(c3cc(Cl)ccn3)C(=O)CS2(=O)=O)n1 (stereo not drawn) | 469
O=C(NCCCCc1ccccc1)c1cccc(C2N(c3cccc(F)c3)C(=O)C[S+]2[O-])c1 (stereo not drawn) | 83
COC(=O)CCNC(=O)c1cccc(C2N(c3ccccn3)C(=O)CS2(=O)=O)n1 (stereo not drawn) | > 1000
O=C(NCCCCc1ccccc1)c1cccc(C2N(c3cccc4ccccc34)C(=O)CS2(=O)=O)c1 (stereo not drawn) | > 10000
O=C(NCCCCc1ccccc1)c1cccc(C2N(c3cccc(F)n3)C(=O)CS2(=O)=O)n1 (stereo not drawn) | > 1000
O=C(NCCCCc1ccccc1)c1cccc(C2N(c3cccc(F)c3)C(=O)CS2(=O)=O)n1 (stereo not drawn) | 17

Compound | IC50 [nM]
O=C(CCCNC(=O)c1cccc(C2N(c3ccccn3)C(=O)CS2(=O)=O)n1)Nc1ccc(F)cc1 (stereo not drawn) | > 1000
CCN(CC)C(=O)CCCNC(=O)c1cccc(C2N(c3ccccn3)C(=O)CS2(=O)=O)n1 (stereo not drawn) | > 1000
O=C(NCCCCc1ccccc1)c1cccc(C2N(c3cccc(F)c3)C(=O)CS2(=O)=O)c1 (stereo not drawn) | 103
Cc1cc(N2C(=O)C[S+]([O-])C2c2cccc(C(=O)NCCCCc3ccccc3)c2)no1 (stereo not drawn) | 354
COCCCNC(=O)c1cccc(C2N(c3ccccn3)C(=O)CS2(=O)=O)n1 (stereo not drawn) | 926
O=C(NCCCCO)c1cccc(C2N(c3ccccn3)C(=O)CS2(=O)=O)n1 (stereo not drawn) | > 1000
COCCCCNC(=O)c1cccc(C2N(c3ncccc3C)C(=O)CS2(=O)=O)n1 (stereo not drawn) | 702
O=C1CS(=O)(=O)C(c2cccc(C(=O)NCCCCc3ccccc3)c2)N1 (stereo not drawn) | > 10000
O=C(NCCCCc1ccccc1)c1cccc(C2N(c3ccc(F)cn3)C(=O)CS2(=O)=O)n1 (stereo not drawn) | 20
O=C(NCCCCc1ccccc1)c1cc(-c2ccccc2)cc(C2N(c3ccccc3)C(=O)CS2(=O)=O)c1 (stereo not drawn) | > 10000
COCCCCNC(=O)c1cccc(C2N(c3ncccc3OC)C(=O)CS2(=O)=O)c1 (stereo not drawn) | > 1000
COc1ccnc(N2C(=O)CS(=O)(=O)C2c2cccc(C(=O)NCCCCc3ccccc3)n2)c1 (stereo not drawn) | 178
O=C(NCCCC(=O)N1CCCC1)c1cccc(C2N(c3ccccn3)C(=O)CS2(=O)=O)n1 (stereo not drawn) | > 1000
O=C(CCCCc1ccccc1)Nc1cccc(C2N(c3ccccc3)C(=O)CS2(=O)=O)c1 (stereo not drawn) | 508
COCCCCNC(=O)c1cccc(C2N(c3ccccn3)C(=O)C[S+]2[O-])n1 (stereo not drawn) | > 1000
COCCCCNC(=O)c1cccc(C2N(c3ncccc3OC)C(=O)C[S+]2[O-])n1 (stereo not drawn) | > 1000
O=C(NCCCCc1ccccc1)c1ccc(C2N(c3ccccc3)C(=O)CS2(=O)=O)o1 (stereo not drawn) | 41
COCCCCNC(=O)c1cccc(C2N(c3ccc(C)cn3)C(=O)CS2(=O)=O)n1 (stereo not drawn) | 262
C#Cc1cc(C(=O)NCCCCc2ccccc2)cc(C2N(c3ccccc3)C(=O)CS2(=O)=O)c1 (stereo not drawn) | 9
COc1cccnc1N1C(=O)CS(=O)(=O)C1c1cccc(C(=O)NCCCCc2ccccc2)n1 (stereo not drawn) | 6
O=C(NCCCCc1ccccc1)c1ccc(C2N(c3ccccc3)C(=O)CS2(=O)=O)cc1 (stereo not drawn) | > 10000
O=C(NCCCCc1ccccc1)c1cccc(C2N(c3ccccc3)C(=O)C[S+]2[O-])n1 (stereo not drawn) | 260

Compound | IC50 [nM]
Cc1cccnc1N1C(=O)CS(=O)(=O)C1c1cccc(C(=O)NCCCCc2ccccc2)n1 (stereo not drawn) | 50
O=C(NCCCCc1ccccc1)c1cccc(C2N(c3ccccc3)C(=O)CS2(=O)=O)c1 (stereo not drawn) | 150
COc1ccccc1N1C(=O)CS(=O)(=O)C1c1cccc(C(=O)NCCCCc2ccccc2)c1 (stereo not drawn) | 31
O=C(NCCCCc1ccccc1)c1cccc(C2N(c3cccc(Cl)c3)C(=O)CS2(=O)=O)c1 (stereo not drawn) | 75
CN(CCCCc1ccccc1)C(=O)c1cccc(C2N(c3ccccc3)C(=O)CS2(=O)=O)c1 (stereo not drawn) | > 10000
O=C(NCCCCc1ccccc1)c1cccc(C2N(C3CC3)C(=O)CS2(=O)=O)c1 (stereo not drawn) | > 10000
COCCCCNC(=O)c1cccc(C2N(c3ccc(F)cn3)C(=O)CS2(=O)=O)n1 (stereo not drawn) | 283
COCCCCNC(=O)c1cccc([C@H]2N(c3ccc(F)cn3)C(=O)CS2(=O)=O)n1 | 137
O=C(NCCCCc1ccccc1)c1cccc(C2N(c3ccc[n+]([O-])c3)C(=O)CS2(=O)=O)c1 (stereo not drawn) | > 10000
Cc1ccnc(N2C(=O)C[S+]([O-])C2c2cccc(C(=O)NCCCCn3cccn3)n2)c1 (stereo not drawn) | 8290
O=C(NCCCCc1ccccc1)c1cc(C(=O)NCCCCc2ccccc2)cc(C2N(c3ccccc3)C(=O)CS2(=O)=O)c1 (stereo not drawn) | > 10000
Cc1ccnc(N2C(=O)C[S+]([O-])C2c2cccc(C(=O)NCCCCn3cccn3)c2)c1 (stereo not drawn) | 3120
COC(=O)CCCCNC(=O)c1cccc(C2N(c3ccccn3)C(=O)CS2(=O)=O)n1 (stereo not drawn) | 225
Cc1ccc(N2C(=O)CS(=O)(=O)C2c2cccc(C(=O)NCCCCc3ccccc3)n2)nc1 (stereo not drawn) | 31
O=C(NCCCCc1ccccc1)c1cccc(C2N(C3CCOCC3)C(=O)CS2(=O)=O)c1 (stereo not drawn) | > 10000
C#Cc1cc(C(=O)NCCCCc2ccccc2)cc(C2N(c3ccccn3)C(=O)CS2(=O)=O)c1 (stereo not drawn) | 32
O=C(NCCCCc1ccccc1)c1cccc(C2N(C3CCCCC3)C(=O)CS2(=O)=O)c1 (stereo not drawn) | 2020
Cc1ccnc(N2C(=O)CS(=O)(=O)C2c2cccc(C(=O)NCCCCn3cccn3)n2)c1 (stereo not drawn) | 924
O=C(NCCCCc1ccccc1)c1cccc(C2N(c3ncccc3O)C(=O)CS2(=O)=O)n1 (stereo not drawn) | 45
CCCCNC(=O)c1cccc(C2N(c3ccccn3)C(=O)CS2(=O)=O)n1 (stereo not drawn) | 420
Cc1cc(N2C(=O)CS(=O)(=O)C2c2cccc(C(=O)NCCCCc3ccccc3)c2)no1 (stereo not drawn) | 447

Test system: not listed separately
Test: Metabolic stability in human liver microsomes assessed as half-life at 0.1 uM preincubated for 10 mins followed by NADPH addition and measured upto 60 mins by LC-MS/MS analysis
Assay type: ADME, Microsome
Settings: time < 70 min

half-life at 0.1 µM [min] | Compound
16.3 | Cc1ccnc(N2C(=O)CS[C@@H]2c2cccc(C(=O)NCCCCn3cccn3)c2)c1
2.12 | COc1cccnc1N1C(=O)CS(=O)(=O)C1c1cccc(C(=O)NCCCCc2ccccc2)n1 (stereo not drawn)

Test system: not listed separately
Test: Metabolic stability in human liver microsomes assessed as bioavailability at 0.1 uM preincubated for 10 mins followed by NADPH addition and measured upto 60 mins by LC-MS/MS analysis
Assay type: ADME, Microsome
Settings: time < 70 min

bioavailability at 0.1 µM [%] | Compound
13.2 | Cc1ccnc(N2C(=O)CS[C@@H]2c2cccc(C(=O)NCCCCn3cccn3)c2)c1
1.94 | COc1cccnc1N1C(=O)CS(=O)(=O)C1c1cccc(C(=O)NCCCCc2ccccc2)n1 (stereo not drawn)

Test system: not listed separately
Test: Metabolic stability in mouse liver microsomes assessed as half-life at 0.1 uM preincubated for 10 mins followed by NADPH addition and measured upto 60 mins by LC-MS/MS analysis
Assay type: ADME, Microsome
Settings: time < 70 min

half-life at 0.1 µM [min] | Compound
5.36 | Cc1ccnc(N2C(=O)CS[C@@H]2c2cccc(C(=O)NCCCCn3cccn3)c2)c1
1.03 | COc1cccnc1N1C(=O)CS(=O)(=O)C1c1cccc(C(=O)NCCCCc2ccccc2)n1 (stereo not drawn)
